The test system of series [1] is developing limb bud of chicken embryos. In words: Drug-soaked filter paper square placed on the developing limb bud of chicken embryos. It counts as in vivo. The settings on record: filter paper square soaked in drug, HH St 18–20. The text has this: Given the potency of these drugs and the resulting embryonic lethality we focused our attention on how the drugs affect limb development. The developing limb bud is a well studied morphological assay[22][41][42] ideal for understanding mechanisms of embryogenesis and how drugs influence this process. Moreover, other anti-angiogenic drugs like thalidomide and valproate cause limb defects. […] We therefore established a method where a small filter paper square soaked in the drug of interest could be placed directly onto the limb tissue of the embryo, thus avoiding or minimalizing exposure of the drug to other developing tissue/structures and retaining high viability. Filter paper squares were soaked for 10 minutes prior to removal of the embryonic membrane of HH St 18–20 (E2.5-E3) chicken embryos, then placed over the developing limb bud. Filter paper squares soaked in 0.1% DMSO had no effect on limb outgrowth.
The tissue was then cleared in methyl salicylate.

In the next series the test system is chicken embryos. The procedure:
We then administered the compounds to developing chicken embryos to observe any teratogenic effects. […] At 48 hours post drug application both the survival rate and the incidence of defects were analyzed. A range of concentrations was tested to determine the effects and optimal concentration that was not 100% lethal.
Fertilized white leghorn chicken embryos purchased from Henry Stewart Ltd. (Herefordshire, United Kingdom) were maintained in an incubator as described previously. At Hamburger and Hamilton stage 18–20 (E2.5-3)[54] the eggs were windowed and the embryos were prepared for drug exposure. To establish a dose response the drugs were applied once to the embryos and growth was monitored as described previously. In a second set of experiments, filter paper squares were cut 100 μm × 100 μm and soaked in the compound of interest for 10 minutes. While the filter paper squares absorbed the solution, embryonic membranes were removed and the sponge was then placed onto the limb bud. The eggs were sealed with tape and returned to an incubator. The embryos were checked daily for developmental defects and to ensure the filter paper squares remained in place. Control embryos were treated with 100 μL PBS with 0.1% DMSO. Embryos were removed from the eggs and fixed in 5% TCA at 4 degrees for 24 hours. Embryos were then washed in alcian blue for 8 hours, and placed in acid ethanol over night before being dehydrated in 100% ethanol for three one hour treatments. The tissue was then cleared in methyl salicylate. Cartilage was imaged and subsequently measured using a graticule scale and ImageJ. A minimum of 8 embryos was used per drug, per concentration. All animal work was licensed and carried out in accordance with and with approval of UK Home Office and Institutional ethical and welfare guidelines.

The conditions of series [2]: human; cited from earlier work.
Series [3] deals with fli1:EGFP zebrafish embryos. In words: fli1:EGFP zebrafish embryo exposure: survival and intersegmental vessel development. It counts as in vivo. The procedure:
We then examined the extent and nature of the anti-angiogenic effects of the compounds using transgenic fli1:EGFP zebrafish embryos. The vasculature of these fish is tagged with EGFP and the transparency of the zebrafish allows for visualization of the forming blood vessels and any effect of anti-cancer drugs on their development over time (Fig. 4). A known anti-angiogenic and teratogenic compound (CPS49) was screened alongside the drugs as a positive control at 10 μg/mL (30 μM), a previously established anti-angiogenic concentration.
fli1:EGFP zebrafish were obtained from the Zebrafish international Resource Centre[29] and maintained in an approved aquarium habitat at 28 °C. At 24 hours post fertilization (hpf) the embryos were checked for GFP expression using a fluorescent microscope and manually dechorionated with forceps, exposed to either a vehicle control, or an anti-angiogenic anti-cancer compound (at 24 hpf) for 24 hours and imaged at 48 hpf. At this point the embryos were anaesthetized in 0.1% tricaine and the length and number of intersegmental vessels (ISV) were quantified as previously described. A minimum of 10 embryos were screened per drug, per concentration, and experiments were performed in triplicate.

Another series relates to Mouse. To be noted: cited from earlier work.
Another series concerns HUVEC cells. The series is described as follows: Endothelial cell proliferation assay (CCK-8). It counts as cell-based, Human. To be noted: Homo sapiens, 18 hours exposure, CCK-8 assay, n = 9. The method, then: Anti-angiogenic drugs were screened in a concentration gradient in the HUVEC culture assay. […] Cell proliferation was assessed using a CCK-8 assay (Dojindo). Statistical analysis by two-way Anova. Error represents the standard error of the mean.
HUVEC cells were purchased from ATCC (Manassas, VA) and cultured as previously described. No further authentication was performed. Cells were seeded at 6.5 × 10^4 cells per well in 100 μL of medium per well. Drugs were diluted in prewarmed DMEM. Serial dilutions were performed from 1000–0.1 nM. The cells were left to grow for 18 hours with exposure to vehicle control (DMSO) or drugs. Experiments were done in triplicate each time. Cellular proliferation was assessed using a CCK-8 assay (Dojindo, Rockville, MD). All plates were read at 450 nm.

For orientation: IC50 means the concentration that gives 50% inhibition.

As for `CO[C@@H]1[C@H](OC(=O)NC(=O)CCl)CC[C@]2(CO2)[C@H]1[C@@]1(C)O[C@@H]1CC=C(C)C` [TNP-470], in series [1], the “effect on limb after direct application to limb bud” value is on record as “Tissue was necrotic-looking”. In the series with chicken embryos (Table 1 summary), the “Defects produced in chicken embryos” value is on record as “Embryolethality, cranial hemorrhaging, micropthalmia, limb defects, spine”. Besides, the “defects observed in treated embryos” value in the series on chicken embryos (global treatment, surviving embryos) is recorded as “twisting of the spinal cord”. Moreover, the “Clinical Toxicities” value in series [2] was “Neurotoxicity”. For the same molecule, in series [3] (200 μg/mL), the treated zebrafish killed is recorded as 90% and the vessel outgrowth entry is given as “reducing vessel outgrowth”. In addition, the “effect at low doses” value in series [3] (<200 μg/mL) is “little effect”. Further, the “relative potency in reducing vessel outgrowth” value in series [3] (concentration gradient, within 24 hours of drug exposure) is given as “no effect until 200 μg/mL”. In addition, in the series with Mouse (Mouse/Mice), the Defects produced result is reported as “Complete failure of embryonic growth” and the “Systemic exposure (AUC) compared to human exposure” value was “Below human”. In the series on Mouse, the “effect during pregnancy in mouse models” value was “anti-angiogenic, disrupting newly developing blood vessels in the placenta and embryonic eye”. In the series on HUVEC cells, this molecule showed an IC50 below 10 nM.
